Ends that are not written are not given here.
Assays:
[1] = system: S. aureus ATCC BAA-2094 (MRSA SCCmec type V); test: MIC, broth dilution; assay type: cell-based, Staphylococcus aureus; details: Table 5; STIP3 variants, highest concentration 100 μg/mL
Method in brief: (§1)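 MIC defined as the lowest peptide level giving no growth after overnight standing incubation at 37° C. Bacteria at OD 6×10^−4 in cation-adjusted MH broth met 2-fold serial peptide dilutions; peptide purity 95%.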

[2] = system: S. aureus ATCC BAA-44 (MRSA SCCmec type I); test: MIC, broth dilution; assay type: cell-based, Staphylococcus aureus; details: Table 5; STIP3 variants, highest concentration 100 μg/mL
Method in brief: as §1

[3] = system: S. aureus ATCC 29213; test: MIC, broth dilution; assay type: cell-based, Staphylococcus aureus; details: Table 5; STIP3 variants, highest concentration 100 μg/mL
Method in brief: as §1

[4] = system: S. aureus ATCC BAA-1683 (MRSA SCCmec type IV); test: MIC, broth dilution; assay type: cell-based, Staphylococcus aureus; details: Table 5; STIP3 variants, highest concentration 100 μg/mL
Method in brief: as §1

[5] = system: S. aureus ATCC BAA-2313 (MRSA SCCmec type XI); test: MIC, broth dilution; assay type: cell-based, Staphylococcus aureus; details: Table 5; STIP3 variants, highest concentration 100 μg/mL
Method in brief: as §1

[6] = system: S. aureus ATCC 33592 (MRSA SCCmec type III); test: MIC, broth dilution; assay type: cell-based, Staphylococcus aureus; details: Table 5; STIP3 variants, highest concentration 100 μg/mL
Method in brief: as §1

[7] = system: S. aureus ATCC BAA-41 (MRSA SCCmec type II); test: MIC, broth dilution; assay type: cell-based, Staphylococcus aureus; details: Table 5; STIP3 variants, highest concentration 100 μg/mL
Method in brief: as §1

[8] = system: S. aureus ATCC BAA-42 (MRSA SCCmec type VI); test: MIC, broth dilution; assay type: cell-based, Staphylococcus aureus; details: Table 5; STIP3 variants, highest concentration 100 μg/mL
Method in brief: as §1

[9] = system: Mannheimia haemolytica ATCC 33393; test: MIC, broth dilution; assay type: cell-based; details: Table 11; highest concentration 25 μg/mL
Method in brief: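 Peptides (95% purity) in 2-fold dilution series were mixed with M. haemolytica diluted to OD 6×10^−4 in cation-adjusted Mueller Hinton broth and incubated standing overnight at 37 °C. MIC was the lowest concentration with no visible growth.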

[10] = system: C. albicans MYA-2876; test: MIC, YPD broth; assay type: cell-based, Candida albicans; details: Table 8
Method in brief: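 Minimum inhibitory concentrations against Candida albicans were determined in YPD broth (10 g/L yeast extract, 20 g/L peptone, 20 g/L dextrose) using peptides of 95% purity. A 180 μl volume of diluted yeast was combined with 20 μl of peptide in a 2-fold dilution series in 96-well plates, with sterile water as control, then incubated standing overnight at 37° C.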

[11] = system: Candida duobushaemulonii AR 392; test: MIC, YPD broth, CDC and FDA AR Candida isolate panel; assay type: cell-based; details: Table 9 below the line: only 200 or 100 μg/mL tested; values reported as 100 are ≤100 μg/mL
Method in brief: (§2)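 Medium: 10 g/L yeast extract, 20 g/L peptone, 20 g/L dextrose. Inoculum OD […]; peptides 95% purity, 2-fold series; overnight 37° C, standing.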

[12] = system: Candida duobushaemulonii AR 394; test: as above; assay type: cell-based; details: Table 9 below the line: only 200 or 100 μg/mL tested; values reported as 100 are ≤100 μg/mL
Method in brief: as §2

[13] = system: Candida krusei AR 397; test: as above; assay type: cell-based; details: Table 9 below the line: only 200 or 100 μg/mL tested; values reported as 100 are ≤100 μg/mL
Method in brief: as §2

[14] = system: Saccharomyces cerevisiae AR 400; test: as above; assay type: cell-based; details: Table 9 below the line: only 200 or 100 μg/mL tested; values reported as 100 are ≤100 μg/mL
Method in brief: as §2

[15] = system: Candida duobushaemulonii AR 391; test: as above; assay type: cell-based; details: Table 9 below the line: only 200 or 100 μg/mL tested; values reported as 100 are ≤100 μg/mL
Method in brief: as §2

[16] = system: Saccharomyces cerevisiae AR 399; test: as above; assay type: cell-based; details: Table 9 below the line: only 200 or 100 μg/mL tested; values reported as 100 are ≤100 μg/mL
Method in brief: as §2

[17] = system: Candida lusitaniae AR 398; test: as above; assay type: cell-based; details: Table 9 below the line: only 200 or 100 μg/mL tested; values reported as 100 are ≤100 μg/mL
Method in brief: as §2

[18] = system: Kodamae ohmeri AR 396; test: as above; assay type: cell-based; details: Table 9 below the line: only 200 or 100 μg/mL tested; values reported as 100 are ≤100 μg/mL
Method in brief: as §2

[19] = system: Candida haemulonii AR 395; test: as above; assay type: cell-based; details: Table 9 below the line: only 200 or 100 μg/mL tested; values reported as 100 are ≤100 μg/mL
Method in brief: as §2

[20] = system: Candida haemulonii AR 393; test: as above; assay type: cell-based; details: Table 9 below the line: only 200 or 100 μg/mL tested; values reported as 100 are ≤100 μg/mL
Method in brief: as §2

Sequence	MIC S. aureus ATCC BAA 2094 (V) [1] [µg/mL]	MIC S. aureus ATCC BAA 44 (I) [2] [µg/mL]	MIC S. aureus ATCC 29213 [3] [µg/mL]	MIC S. aureus ATCC BAA 1683 (IV) [4]	MIC S. aureus ATCC BAA 2313 (XI) [5] [µg/mL]	MIC S. aureus ATCC 33592 (III) [6] [µg/mL]	MIC S. aureus ATCC BAA 41 (II) [7] [µg/mL]	MIC S. aureus ATCC BAA 42 (VI) [8] [µg/mL]	MIC (μg/mL) M. haemolytica [9]	MIC C. albicans MYA-2876 [10] [µg/mL]	MIC (μg/mL) Candida duobushaemulonii AR 392 [11]	MIC (μg/mL) Candida duobushaemulonii AR 394 [12]	MIC (μg/mL) Candida krusei AR 397 [13]	MIC (μg/mL) Saccharomyces cerevisiae AR 400 [14] [µg/mL]	MIC (μg/mL) Candida duobushaemulonii AR 391 [15]	MIC (μg/mL) Saccharomyces cerevisiae AR 399 [16]	MIC (μg/mL) Candida lusitaniae AR 398 [17]	MIC (μg/mL) Kodamae ohmeri AR 396 [18]	MIC (μg/mL) Candida haemulonii AR 395 [19]	MIC (μg/mL) Candida haemulonii AR 393 [20]
TVGGLVKWILDTVKKFW [STIP3-6, TVGGLVKWILDTVKKFW]	12.5	25	12.5	12.5 µg/mL	12.5	12.5	12.5	12.5	25 µg/mL	50	> (values below the line were determined using two concentrations of peptide 200 or 100 μg/mL)	> (values below the line were determined using two concentrations of peptide 200 or 100 μg/mL)	≤ 100 µg/mL	≤ 100	> (values below the line were determined using two concentrations of peptide 200 or 100 μg/mL)	≤ 100 µg/mL	≤ 100 µg/mL	> (values below the line were determined using two concentrations of peptide 200 or 100 μg/mL)	> (values below the line were determined using two concentrations of peptide 200 or 100 μg/mL)	> (values below the line were determined using two concentrations of peptide 200 or 100 μg/mL)
TVGGLVKWILDVVKKFA [STIP3-9, TVGGLVKWILDVVKKFA]	25	25	25	25 µg/mL	25	25	35	25	25 µg/mL	50	> (values below the line were determined using two concentrations of peptide 200 or 100 μg/mL)	> (values below the line were determined using two concentrations of peptide 200 or 100 μg/mL)	≤ 100 µg/mL	≤ 100	> (values below the line were determined using two concentrations of peptide 200 or 100 μg/mL)	≤ 100 µg/mL	≤ 100 µg/mL	> (values below the line were determined using two concentrations of peptide 200 or 100 μg/mL)	> (values below the line were determined using two concentrations of peptide 200 or 100 μg/mL)	> (values below the line were determined using two concentrations of peptide 200 or 100 μg/mL)
TVGGLVKWILDWVKKFA [STIP3-10, TVGGLVKWILDWVKKFA]	100	200	100	> (no inhibition was observed at the highest concentration of peptide tested: 100 μg/mL for the STIP3 variants)	50	100	100	25	> (> symbol indicates that no inhibition was observed at the highest concentration of peptide tested: 25 μg/mL)	50	> (values below the line were determined using two concentrations of peptide 200 or 100 μg/mL)	> (values below the line were determined using two concentrations of peptide 200 or 100 μg/mL)	> (values below the line were determined using two concentrations of peptide 200 or 100 μg/mL)	≤ 100	> (values below the line were determined using two concentrations of peptide 200 or 100 μg/mL)	> (values below the line were determined using two concentrations of peptide 200 or 100 μg/mL)	> (values below the line were determined using two concentrations of peptide 200 or 100 μg/mL)	> (values below the line were determined using two concentrations of peptide 200 or 100 μg/mL)	> (values below the line were determined using two concentrations of peptide 200 or 100 μg/mL)	> (values below the line were determined using two concentrations of peptide 200 or 100 μg/mL)
TVGGLVKWILKAVKKFA [STIP3-13, TVGGLVKWILKAVKKFA]	25	25	25	25 µg/mL	25	25	12.5	25	12.5 µg/mL	50	≤ 100 µg/mL	≤ 100 µg/mL	≤ 100 µg/mL	≤ 100	≤ 100 µg/mL	≤ 100 µg/mL	≤ 100 µg/mL	> (values below the line were determined using two concentrations of peptide 200 or 100 μg/mL)	> (values below the line were determined using two concentrations of peptide 200 or 100 μg/mL)	> (values below the line were determined using two concentrations of peptide 200 or 100 μg/mL)
TVGGLVKWILNTVKKFA [STIP3-4, TVGGLVKWILNTVKKFA]	50	50	100	100 µg/mL	100	50	50	50	25 µg/mL	12.5	> (values below the line were determined using two concentrations of peptide 200 or 100 μg/mL)	> (values below the line were determined using two concentrations of peptide 200 or 100 μg/mL)	≤ 100 µg/mL	≤ 100	> (values below the line were determined using two concentrations of peptide 200 or 100 μg/mL)	≤ 100 µg/mL	≤ 100 µg/mL	> (values below the line were determined using two concentrations of peptide 200 or 100 μg/mL)	> (values below the line were determined using two concentrations of peptide 200 or 100 μg/mL)	> (values below the line were determined using two concentrations of peptide 200 or 100 μg/mL)

Source: patent publication US12370235B2, “Synthetic, non-natural antimicrobial peptides inspired by Staphylococcus auricularis delta toxin” (University of Saskatchewan, priority 2021, dated 2025)
